Assay results published in patent US20190211317A1, “PEPTIDES AND NANOPARTICLES FOR INTRACELLULAR DELIVERY OF GENOME-EDITING MOLECULES” (Aadigen, LLC, priority 2016, published 2019).
Several values for one entry are separate records, joined by “and”; a condition that tells them apart may be missing. Equal entries are not always repeated. Non-standard residues stand in square brackets, D forms with d. Residues, ends and D or L forms follow the SMILES beside them. βAla = NCCC(=O)O

Assays:
PCSK9 = assay: In vivo CAS9 mRNA/gRNA targeting PCSK9: serum PCSK9 (ELISA); set-up: species or system mouse
Description: Polyadenylated and capped CAS9 mRNA was obtained from ThermoFisher, and gRNA (5 μg) targeting PCSK9 Exon 1 was obtained from Eurogentec. […] Free CAS9 mRNA/gRNA was injected as a control.
Blood samples were collected by saphenous vein bleeds at multiple time points (day 3, 6, 10, and 21), collecting no more than 100 μl or 10% of total blood volume per week. Serum levels of PCSK9 were determined by ELISA using the Mouse Proprotein Convertase 9/PCSK9 Quantikine ELISA Kit (MPC-900, R&DSystems).

[1] = tested on: endogenous EMX1 gene in U2OS, HEPG2, K562 cells and primary human fibroblasts; assay: EMX1 editing from CPP delivery of CAS9 mRNA/gRNA (T7E1); format: cell-based
Description: CPP/CAS9 mRNA/gRNA complexes were formed by mixing the CAS9 mRNA (0.5 μg) and gRNA (5 μg) with CPP at a 20:1 molar ratio of CPP:cargo and incubating for 30 min at 37° C. prior to cell transfection. Suspension and adherent cells were transfected according to the protocols described in Example 13a. RNAiMAX-mediated delivery (Invitrogen Thermo Fisher France) was used as a control. EMX1 gene editing was analyzed at day 3 and day 6 by T7E1 assay and quantified using a Fragment Analyzer System.

[2] = Particle size, polydispersity and zeta potential with different cargoes (Zetasizer NANO ZS P); format: physicochemical; settings: 20:1; for formation of stable nanoparticles: with CAS9-mRNA and CAS9-mRNA/gRNA complex
Description: The CPP/CAS9-protein, CPP/CAS9-protein/sgRNA, CPP/CAS9-mRNA, CPP/CAS-mRNA/sgRNA particles were characterized; the mean size, polydispersity, and zeta potential were measured with a Zetasizer NANO ZS P apparatus (Malvern Ltd).
The mean size and the polydispersity of the CCP/cargo complexes were determined at 25° C. for 5 min per measurement and zeta potential was measured with a Zetasizer NANO ZS P apparatus (Malvern Ltd).

[3] = tested on: U2OS and HEPG2 cell lines and primary human fibroblasts; assay: CAS9 protein expression after CPP delivery of CAS9-expressing plasmid (ELISA); format: cell-based; settings: day 6
Description: CPP/plasmid complexes were prepared by mixing 0.5 μg of a CAS9-expressing plasmid (Addgene MLM3639-Plasmid #42252) with CPP at a 20:1 molar ratio of CPP:cargo and incubating for 30 min at 37° C. prior to cell transfection. Cells were transfected according to the protocols for adherent and suspension cells described in Example 13a. Lipofectamine 2000 was used as lipid-based delivery control. CAS9 protein expression level was analyzed at multiple time points over a period of 10 days as determined by ELISA on protein extracts using antibodies against CRISPR/Cas9 obtained from Diagenode (Diagenode cat. No. C15200223) and ABCAM (clone 7A9-ab191468).

[4] = tested on: endogenous EMX1 gene in primary human T cells; assay: EMX1 editing in primary human T cells with CAS9 mRNA, protein or plasmid plus gRNA (T7E1); format: cell-based
Description: CPP/CAS9 mRNA/gRNA complexes were formed by mixing the CAS9 mRNA (0.5 μg) and gRNA (5 μg) with CPP at a 20:1 molar ratio of CPP to nucleic acid (mRNA+gRNA) and incubating for 30 min at 37° C. prior to cell transfection. CPP/plasmid/gRNA complexes were formed by mixing CAS9 expressing plasmid (Addgene MLM3639-Plasmid #42252) (0.5 μg) and gRNA (5 μg) with CPP at a 20:1 molar ratio of CPP to nucleic acid (plasmid+gRNA) and incubating for 30 min at 37° C. prior to cell transfection. CPP/CAS9/gRNA complexes were formed by mixing preloaded CAS9/gRNA complexes (2.5 μg/5 μg CAS9/gRNA) with CPP at a 20:1 molar ratio of CPP to complex and incubating for 30 min at 37° C. prior to cell transfection.
T cells were transfected according to the protocol for suspension cells described in Example 13a. Lipofectamine 2000- and RNAiMAX-mediated delivery methods (Invitrogen Thermo Fisher France) were included as controls. EMX1 gene editing was analyzed at day 3, day 6, and day 10 by T7E1 assay and quantified using a Fragment Analyzer System.

[5] = tested on: EGFP reporter gene in EGFP-U2OS, EGFP-HEK, EGFP-JURKAT cells; assay: EGFP reporter gene disruption from CPP delivery of CAS9:sgRNA (flow cytometry); format: cell-based, human; settings: for reduction of EGFP-positive cells: EGFP-JURKAT; for decrease in EGFP expression: CAS9:gRNA 50 nM, CPP:cargo 20:1; for reduction of EGFP-expressing cells / loss of EGFP expression: JURKAT; for reduction of EGFP-expressing cells / loss of EGFP expression / loss of EGFP expression: 1 nM CAS9:gRNA; for loss of EGFP expression: both cell lines (U2OS, HEK);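 for all read-outs here: cells carrying one integrated EGFP reporter received peptide-complexed CAS9 preloaded 1:1 with EGFP sgRNA, cultured 72 h, then EGFP level read by flow cytometry, lipofectamine 2000 and RNAiMAX as positive controls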
Description: Efficacy of CPP-mediated delivery was quantified using a well-established CAS9-induced gene disruption method (Fu et al, 2013, supra), by targeting a specific site in the exogenous EGFP gene reporter in three human cell lines expressing EGFP (GFP-U2OS, EGFP-HEK, EGFP-JURKAT).
Stock solutions of amphipathic peptides were prepared at 1 mg/mL in distilled water and sonicated for 10 min. CAS9 protein was preloaded with purified EGFP sgRNA at a molar ratio of 1:1 and incubated for 10 min prior to forming complexes with the peptides. Preloaded CAS9/gRNA complexes (10 nM, 25 nM, and 50 nM) were mixed with CPPs at 5:1, 10:1 and 20:1 molar ratios of CPP to cargo and incubated for 30 min at 37° C. prior to cell transfection.
Cell line containing a single integrated EGFP reporter gene (GFP-U2OS, EGFP-HEK and EGFP-JURKAT) were cultured in Dulbecco's Modified Eagle's Medium (DMEM), supplemented with 2 mM glutamine, 1% antibiotics (streptomycin 10,000 μg/mL, penicillin, 10,000 IU/mL) and 10% (w/v) foetal calf serum (FCS) at 37° C. in a humidified atmosphere containing 5% CO2. A total of 150,000 cells seeded in a 35 mm dish the day prior to transfection were grown to 50-60% confluence and overlaid with 200 μl of preformed complexes, incubated for 3-5 min, then 400 μl of DMEM was added. After 30 min incubation at 37° C., 1 mL of fresh DMEM containing 16% FCS was added to reach a final FCS concentration of 10%, without removing the overlay of CPP/CAS9-gRNA complexes. Cells were returned to the incubator for 72 hours.
CAS9-induced double-strand break formation was analyzed using flow cytometry by monitoring level of EGFP expression. […] Both lipofectamine 2000 and RNAiMAX delivery methods were used as positive controls.

[6] = tested on: U2OS, HEPG2, K562 cells and primary human fibroblasts; assay: CAS9 protein expression after CPP delivery of CAS9 mRNA (ELISA); format: cell-based; settings: day 3
Description: CPP/CAS9 mRNA complexes were formed by mixing the CAS9 mRNA (0.5 μg) with CPP at a 20:1 molar ratio of CPP:CAS9 mRNA and incubating for 30 min at 37° C. prior to cell transfection. Cells were transfected according to optimized protocols for either adherent or suspension cell lines.
Human primary fibroblasts were freshly obtained and grown in flasks pre-coated with a gelatin-based coating solution and incubated in Culture Complete Growth Medium for 3 days before expansion and treatment. U2OS cells were cultured in Dulbecco's Modified Eagle's Medium (DMEM), supplemented with 2 mM glutamine, 1% antibiotics (streptomycin 10,000 μg/mL, penicillin, 10,000 IU/mL) and 10% (w/v) foetal calf serum (FCS), at 37° C. in a humidified atmosphere containing 5% CO2. 35 mm dishes seeded with 150,000 cells the day prior to transfection were grown to 50-60% confluence and set up to be at about 70% confluences at the time of transfection. Before transfection, cells were washed with DMEM (2×) followed by PBS (1×). Cells were then overlaid with 0.2 ml of complex solution (16 μl CPP/Cargo complex in water+184 μl OPTiMEM without antibiotics), mixed gently, and incubated for 10 min at 37° C. 0.8 mL of fresh OPTiMEM or DMEM was then added and cells were incubated for 20 min at 37° C. 2 mL of complete OPTiMEM (high glucose) or DMEM containing 11.4% FCS was then added in order to reach a final FCS concentration of 10%, without removing the overlay of CPP/Cargo complexes. Cells were returned to the incubator (37° C., 5% CO2) and assayed at 72 hours post transfection.
K562 and HEpG2 cells were set up to be at about 70% confluence at the time of transfection. The cells were maintained in high glucose DMEM media with 10% serum. Before transfection, cells were harvested by centrifugation, then washed with DMEM (2×) followed by PBS (1×). Cells were then resuspended in 0.2 ml of complex solution (16 μl CPP/Cargo complex in water+184 μl OPTiMEM without antibiotics), mixed gently, and incubated for 10 min at 37° C. 0.8 mL of fresh OPTiMEM was then added and cells were incubated for 20 min at 37° C. 2 mL of complete OPTiMEM (high glucose) containing 11.4% FCS was then added in order to reach a final FCS concentration of 10%, without removing the overlay of CPP/Cargo complexes. Cells were returned to the incubator (37° C., 5% CO2) and assayed at 72 hours post transfection.
RNAiMAX lipid-based delivery (Invitrogen Thermo Fisher France) was used as a control and transfections were performed following the manufacturer's instructions. CAS9 expression level was analyzed at multiple time points over a period of 10 days as determined by ELISA on protein extracts using antibodies against CRISPR/Cas9 obtained from Diagenode (Diagenode cat. No. C15200223) and ABCAM (clone 7A9-ab191468).

primary human T cells = assay: CAS9 protein expression in primary human T cells after CAS9 mRNA or plasmid delivery (ELISA); format: cell-based; settings: day 3
Description: T cells were isolated from PBMCs using anti-CD3/anti-CD28 antibodies bound to paramagnetic beads (Dynabeads ClinExVivo CD3/CD28, Invitrogen) at a ratio of 3:1 (beads:cells). The cells and beads were co-incubated for 2 hours at room temperature and CD3^+ cell enrichment was performed using Dynal ClinExVIVO MPC magnet (Thermo Fisher). The anti-CD3/anti-CD28 paramagnetic beads were removed, washed and concentrated. Cells in the CD3^+ fraction were resuspended in activation media at a concentration of 1×10^6 cells/ml with AIM-V medium (Thermo Fishers) supplemented with 10% fetal calf serum, 300 IU/ml IL2 and 50 ng/ml OKT3 (MuromonAB-CD3) for two days.
CPP/CAS9 complexes were formed by mixing the CAS9 mRNA (0.5 μg) with CPP at a 20:1 molar ratio of CPP:CAS9 mRNA and incubating for 30 min at 37° C. prior to cell transfection. CPP/CAS9-expressing plasmid complexes were formed by mixing the CAS9-expressing plasmid (Addgene MLM3639-Plasmid #42252) (0.5 μg) with CPP at a 20:1 molar ratio of CPP:plasmid and incubating for 30 min at 37° C. prior to cell transfection.
Cells were transfected according to the protocol for suspension cells described in Example 13a. RNAiMAX and lipofectamine 2000 lipid-based delivery methods (Invitrogen Thermo Fisher France) were used as controls, and transfections were performed following the manufacturer's instructions. CAS9 protein expression level was analyzed at multiple time points over a period of 10 days as determine by ELISA on protein extracts using antibodies against CRISPR/Cas9 obtained from Diagenode (Diagenode cat. No. C15200223) and ABCAM (clone 7A9-ab191468).

Swiss mice = assay: In vivo delivery of CAS9 mRNA by three CPPs: CAS9 expression in tissues (ELISA); set-up: species or system mouse; settings: for ELISA signal for CAS9 protein expression: day 3 and day 6, CAS9 mRNA 5 μg i.v., 20:1; for CAS9 protein expression: other tissues examined
Description: Free CAS9 mRNA in physiological buffer was injected as a control.
At day 3, day 6, and day 10 following injection, animals were sacrificed and tissues including lung, liver, brain, kidney, heart, spleen, blood, pancreas, muscle, bone marrow, and intestine were collected. Tissues were homogenized and CAS9 protein levels in protein extracts were analyzed by ELISA using an antibody against CRISPR/Cas9 (SBI clone 7A9).

[7] = tested on: endogenous EMX1 gene in U2OS, HEPG2, K562 cells and primary human fibroblasts; assay: EMX1 editing from CPP delivery of CAS9 protein/gRNA (T7E1); format: cell-based; settings: each of the cell types tested; 2.5 μg/5 μg CAS9/gRNA
Description: CPP/CAS9/gRNA complexes were prepared by mixing preloaded CAS9/gRNA complexes (2.5 μg/5 μg CAS9/gRNA) with CPP peptides at a 20:1 molar ratio of CPP to cargo and incubating for 30 min at 37° C. prior to cell transfection. Cells were transfected according to the protocols described in Example 13a, and RNAiMAX-mediated delivery (Invitrogen Thermo Fisher France) was used as a control. EMX1 gene editing was analyzed at day 3 and day 6 by T7E1 assay and quantified using a Fragment Analyzer System.

[8] = tested on: endogenous EMX1 gene in U2OS, JURKAT and K562 cells; assay: EMX1 gene editing from CPP delivery of CAS9/gRNA (T7E1 assay); format: cell-based, human
Description: RNAiMAX delivery was used as a positive control as it was previously reported to show better results than Lipofectamine 2000 (Zuris et al., 2015, supra). […] Cells were returned to the incubator for 72 hours.

[9] = tested on: endogenous EMX1 gene in U2OS, HEPG2 cells and primary human fibroblasts; assay: EMX1 editing from CPP delivery of CAS9-expressing plasmid and gRNA (T7E1); format: cell-based; settings: the three cell types
Description: EMX1-targeting gRNAs were prepared as described above. CPP/plasmid/gRNA complexes were prepared by mixing 0.5 μg of a CAS9-expressing plasmid (Addgene MLM3639-Plasmid #42252) and 5 μg gRNA with CPP at a 20:1 molar ratio of CPP to nucleic acid (plasmid+gRNA) and incubating for 30 min at 37° C. prior to cell transfection. Suspension and adherent cells were transfected according to the protocols described in Example 13a. Lipofectamine 2000- and RNAiMAX-mediated delivery methods (Invitrogen Thermo Fisher France) were used as controls. EMX1 gene editing was analyzed at day 3 and day 6 by T7E1 assay and quantified using a Fragment Analyzer System.

[10] = CPP/CAS9 and CPP/CAS9:gRNA particle size, polydispersity, zeta potential (Zetasizer 4); format: physicochemical
Description: The CPP/CAS9 and CPP/CAS9/sgRNA particles were further characterized; the mean size, polydispersity and zeta potential were measured with Zetasizer 4 apparatus (Malvern Ltd). […] The mean size and the polydispersity of the CCP/CAS9 and CCP/CAS9:gRNA complexes were determined at 25° C. for 3 min per measurement and zeta potential was measured with Zetasizer 4 apparatus (Malvern Ltd).

[11] = tested on: endogenous EMX1 and exogenous EGFP reporter genes in GFP-U2OS, EGFP-JURKAT cells; assay: Delivery of multiple RGEN/gRNA complexes: EMX1 and EGFP editing; format: cell-based, human
Description: RNAiMAX delivery was used as positive control. Cells were treated as described previously and CAS9-induced NHEJ analyzed 72 hr after transfection. […] The deletion (indel) frequency in the EMX1 gene was quantified using the T7E1 assay and loss of EGFP expression was monitored by flow cytometry. Data for on-target mutations induced by RGEN/gRNA are reported as an average of 3 separate experiments.

[12] = day 1, CAS9 mRNA 5 μg/gRNA 5 μg single i.v.
[13] = with CAS9-mRNA and CAS9-mRNA/gRNA
[14] = CAS9-expressing plasmid and gRNA, day 3

Compound: CC(C)C[C@H](NC(=O)CCN)C(=O)N[C@@H](Cc1c[nH]c2ccccc12)C(=O)N[C@@H](CCCNC(=N)N)C(=O)N[C@@H](C)C(=O)N[C@@H](CC(C)C)C(=O)N[C@@H](Cc1c[nH]c2ccccc12)C(=O)N[C@@H](CCCNC(=N)N)C(=O)N[C@@H](CC(C)C)C(=O)N[C@@H](Cc1c[nH]c2ccccc12)C(=O)N[C@@H](CCCNC(=N)N)C(=O)N[C@@H](CO)C(=O)N[C@@H](CC(C)C)C(=O)N[C@@H](Cc1c[nH]c2ccccc12)C(=O)N[C@@H](CCCNC(=N)N)C(=O)N[C@@H](CC(C)C)C(=O)N[C@@H](CC(C)C)C(=O)N[C@@H](Cc1c[nH]c2ccccc12)C(=O)N[C@@H](CCCCN)C(=O)N[C@@H](C)C(=O)O [VEPEP-6] (H-[βAla]LWRALWRLWRSLWRLLWKA-OH; N-terminus and C-terminus assumed)
- decrease of serum levels of PSCK9 (PCSK9; [12]): 64%
- decrease of serum levels of PSCK9 (PCSK9; day 3): 73%
- decrease of serum levels of PSCK9 (PCSK9; day 6): 75%
- decrease of serum levels of PSCK9 (PCSK9; day 10): 73%
- decrease of serum levels of PSCK9 (PCSK9; day 14): 71%
- decrease of serum levels of PSCK9 (PCSK9; day 20): 70%
- mean indel frequencies [1]: about 60%
- formation of stable nanoparticles [2]: able to form stable nanoparticles
- Mean diameter [2, 13]: ~100 nm
- polydispersity index (PI) [2, 13]: 0.2
- ELISA signal for CAS9 protein expression ([3]; U2OS and HEPG2): about 4 times the background
- ELISA signal for CAS9 protein expression ([3]; primary human fibroblasts): about 2 times the background
- mean indel frequencies [4, 14]: little to no EMX1 gene editing
- mean indel frequencies ([4]; CAS9 protein/gRNA): little to no EMX1 gene editing
- reduction of EGFP-positive cells [5]: no significant change
- decrease in EGFP expression ([5]; HEK): 30%
- reduction of EGFP-expressing cells / loss of EGFP expression [5]: no change in EGFP expression
- decrease in EGFP expression ([5]; U2OS): 25%
- loss of EGFP expression [5]: no change in EGFP expression
- ELISA signal for CAS9 protein expression ([6]; U2OS, K562, HepG2, CAS9 mRNA 0.5 μg): ~30 times the background
- ELISA signal for CAS9 protein expression ([6]; primary human fibroblasts): about 20 times the background
- ELISA signal for CAS9 protein expression (primary human T cells; CAS9-expressing plasmid 0.5 μg): little to no CAS9 expression
- ELISA signal for CAS9 protein expression (primary human T cells; CAS9 mRNA 0.5 μg): ~17 times the background
- CAS9 expression (Swiss mice; day 10, brain): CAS9 expression was observed
- CAS9 expression (Swiss mice; day 10, liver): CAS9 expression was observed
- CAS9 expression (Swiss mice; day 10, lung): CAS9 expression was observed
- ELISA signal for CAS9 protein expression (Swiss mice; liver): > 15 times that of background
- CAS9 expression (Swiss mice; lung): about 8 times that of background
- CAS9 protein expression (Swiss mice): Little to no increase
- mean indel frequencies [7]: no significant EMX1 gene editing

Compound: CC(C)C[C@H](NC(=O)CCN)C(=O)N[C@@H](CCCNC(=N)N)C(=O)N[C@@H](Cc1c[nH]c2ccccc12)C(=O)N[C@@H](Cc1c[nH]c2ccccc12)C(=O)N[C@@H](CC(C)C)C(=O)N[C@@H](CCCNC(=N)N)C(=O)N[C@@H](Cc1c[nH]c2ccccc12)C(=O)N[C@@H](C)C(=O)N[C@@H](CO)C(=O)N[C@@H](CCCNC(=N)N)C(=O)N[C@@H](Cc1c[nH]c2ccccc12)C(=O)N[C@@H](Cc1ccccc1)C(=O)N[C@@H](CO)C(=O)N[C@@H](CCCNC(=N)N)C(=O)N[C@@H](Cc1c[nH]c2ccccc12)C(=O)N[C@@H](C)C(=O)N[C@@H](Cc1c[nH]c2ccccc12)C(=O)N[C@@H](Cc1c[nH]c2ccccc12)C(=O)N[C@@H](CCCNC(=N)N)C(=O)O [VEPEP-9]
- decrease of serum levels of PSCK9 (PCSK9; [12]): 13%
- decrease of serum levels of PSCK9 (PCSK9; day 3): 29%
- decrease of serum levels of PSCK9 (PCSK9; day 6): 31%
- decrease of serum levels of PSCK9 (PCSK9; day 10): 27%
- decrease of serum levels of PSCK9 (PCSK9; day 14): 25%
- decrease of serum levels of PSCK9 (PCSK9; day 20): 24%
- mean indel frequencies [1]: about 10%
- formation of stable nanoparticles [2]: able to form stable nanoparticles
- Mean diameter [2, 13]: ~120 nm
- mean particle size ([2]; with preloaded CAS9-protein/gRNA complex): 210±20
- mean indel frequencies [4, 14]: about 30%
- mean indel frequencies ([4]; CAS9 protein/gRNA): about 20%
- reduction of EGFP-positive cells [5]: 22%
- decrease in EGFP expression ([5]; HEK): 58%
- reduction of EGFP-expressing cells / loss of EGFP expression [5]: no change in EGFP expression
- decrease in EGFP expression ([5]; U2OS): 55%
- loss of EGFP expression [5]: 5%
- Mean indel Frequency ± S.E.M ([8]; JURICAT, CAS9/sgRNA 25 nM): 21% and 21 ± 7%
- Mean indel Frequency ± S.E.M ([8]; JURKAT, CAS9/sgRNA 50 nM): 21 ± 5%
- Mean indel Frequency ± S.E.M ([8]; K562, CAS9/sgRNA 25 nM): 29% and 29 ± 7%
- Mean indel Frequency ± S.E.M ([8]; K562, CAS9/sgRNA 50 nM): 25 ± 5%
- Mean indel Frequency ± S.E.M ([8]; U2OS, CAS9/sgRNA 25 nM, 20:1): 27% and 27 ± 3%
- Mean indel Frequency ± S.E.M ([8]; U2OS, CAS9/sgRNA 50 nM): 30 ± 6%
- mean indel frequencies [9]: 35-40%
- ELISA signal for CAS9 protein expression (primary human T cells; CAS9-expressing plasmid 0.5 μg): about 4 times the background
- ELISA signal for CAS9 protein expression (primary human T cells; CAS9 mRNA 0.5 μg): about 4 times the background
- PI ([10]; Cas9:gRNA, molar ratio 20/1): 0.58 and 0.58 ± 0.1
- Size ([10]; Cas9:gRNA, molar ratio 20/1): 170±10 nm
- zeta ([10]; Cas9:gRNA, molar ratio 20/1): 39 ± 8 MV
- Pt ([10]; Cas9, molar ratio 20/1): 0.45 ± 0.1
- Size ([10]; Cas9, molar ratio 20/1): 280 ± 20 nm
- zeta ([10]; Cas9, molar ratio 20/1): 32 ± 5 mV
- formation of stable particles with preloaded CAS9:gRNA complex ([10]; molar ratio 10:1): neither CADY nor VEPEP-9 formed stable particles
- Mean indel Frequency ± S.E.M ([11]; JURKAT, EGFP): 15 ± 8%
- Mean indel Frequency ± S.E.M ([11]; JURKAT, EMX1): 10 ± 2%
- Mean indel Frequency ± S.E.M ([11]; U2OS, EGFP, 25 nM each complex): 32 ± 4%
- Mean indel Frequency ± S.E.M ([11]; U2OS, EMX1): 31 ± 5%
- CAS9 expression (Swiss mice; day 10, brain): CAS9 expression was observed
- CAS9 expression (Swiss mice; day 10, liver): CAS9 expression was observed
- CAS9 expression (Swiss mice; day 10, lymph node): CAS9 expression was observed
- ELISA signal for CAS9 protein expression (Swiss mice; liver): > 8 times that of background
- CAS9 protein expression (Swiss mice): Little to no increase
